In US12655116B2, “Substituted isophthalic acid diamides” (Bayer Aktiengesellschaft, priority 2020, dated 2026):

Key:
SETVI [1] = experiment: Pre-emergence herbicidal action against SETVI; assay type: in vivo, Setaria viridis; conditions: dosage 80 g/ha
In short: (§1)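 Visual rating at 3 weeks vs untreated pots; 0–100% scale, 100% = plants died. Treatment: aqueous WP/EC spray onto covering soil, 600–800 l/ha, 0.2% wetter, seeds in sandy loam.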

ECHCG [2] = experiment: Pre-emergence herbicidal action against ECHCG; assay type: in vivo, Echinochloa crus-galli; conditions: 80 g/ha
In short: as §1

PHBPU [3] = experiment: Pre-emergence herbicidal action against PHBPU; assay type: in vivo, Pharbitis purpurea; conditions: dosage 80 g/ha
In short: as §1

AMARE [4] = experiment: Pre-emergence herbicidal action against AMARE; assay type: in vivo, Amaranthus retroflexus
In short: as §1

VERPE [5] = experiment: Post-emergence herbicidal action against VERPE; assay type: in vivo, Veronica persica
In short: (§2)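 Weeds in sandy loam soil received a post-emergence spray at the one-leaf stage. Compounds were applied as WP or EC in water, 600 to 800 l/ha, with 0.2% wetting agent. Activity in % was judged visually after roughly 3 weeks against untreated plants.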

MATIN [6] = experiment: Post-emergence herbicidal action against MATIN; assay type: in vivo, Matricaria inodora
In short: as §2

ABUTH [7] = experiment: Post-emergence herbicidal action against ABUTH; assay type: in vivo, Abutilon theophrasti; conditions: visual assessment about 3 weeks after treatment vs untreated controls
In short: as §2

SETVI [8] = experiment: Post-emergence herbicidal action against SETVI; assay type: in vivo, Setaria viridis
In short: as §2

MATIN [9] = experiment: Pre-emergence herbicidal action against MATIN; assay type: in vivo, Matricaria inodora
In short: as §1

AMARE [10] = experiment: Post-emergence herbicidal action against AMARE; assay type: in vivo, Amaranthus retroflexus; conditions: 20 g/ha, visual assessment about 3 weeks after treatment, 100% = plants have died, 0% = like control plants
In short: as §2

PHBPU [11] = experiment: Post-emergence herbicidal action against PHBPU; assay type: in vivo, Pharbitis purpurea; conditions: dosage 20 g/ha
In short: as §2

VIOTR [12] = experiment: Pre-emergence herbicidal action against VIOTR; assay type: in vivo, Viola tricolor
In short: as §1

DIGSA [13] = experiment: Pre-emergence herbicidal action against DIGSA; assay type: in vivo, Digitaria sanguinalis
In short: as §1

POLCO = experiment: Pre-emergence herbicidal action against POLCO; assay type: in vivo, Polygonum convolvulus; conditions: dosage 80 g/ha
In short: as §1

VERPE [14] = experiment: Pre-emergence herbicidal action against VERPE; assay type: in vivo, Veronica persica; conditions: dosage 80 g/ha
In short: as §1

ABUTH [15] = experiment: Pre-emergence herbicidal action against ABUTH; assay type: in vivo, Abutilon theophrasti; conditions: for Pre-emergence action against ABUTH (herbicidal activity): 80 g/ha, scored visually after 3 weeks vs untreated controls (100% = plants have died, 0% = like control plants); for Pre-emergence action against ABUTH (herbicidal activity in percent): dosage 20 g/ha, scored visually after 3 weeks vs untreated controls, 100% = plants have died, 0% = like control plants
In short: as §1

VIOTR [16] = experiment: Post-emergence herbicidal action against VIOTR; assay type: in vivo, Viola tricolor
In short: as §2

DIGSA [17] = experiment: Post-emergence herbicidal action against DIGSA; assay type: in vivo, Digitaria sanguinalis; conditions: for Post-emergence action against DIGSA in %: 5 g/ha; for Post-emergence action against DIGSA: 20 g/ha
In short: as §2

ECHCG [18] = experiment: Post-emergence herbicidal action against ECHCG; assay type: in vivo, Echinochloa crus-galli
In short: as §2

[19] = 20 g/ha, scored visually after 3 weeks vs untreated controls, 100% = plants have died, 0% = like control plants
[20] = 80 g/ha, scored visually after 3 weeks vs untreated controls (100% = plants have died, 0% = like control plants)

SMILES | Pre-emergence action against SETVI in % (SETVI [1]) [%] | Pre-emergence action against ECHCG in % (ECHCG [2]) [%] | Pre-emergence action against PHBPU in % (PHBPU [3]) [%] | Pre-emergence action against AMARE in % (AMARE [4]; [19]) [%] | Pre-emergence action against AMARE in % (AMARE [4]; [20]) [%] | Post-emergence action against VERPE in % (VERPE [5]; 20 g/ha) [%] | Post-emergence action against MATIN in % (MATIN [6]; dosage 5 g/ha) [%] | Post-emergence action against MATIN in % (MATIN [6]; dosage 20 g/ha) [%] | Post-emergence action against ABUTH in % (ABUTH [7]; dosage 20 g/ha) [%] | Post-emergence action against SETVI in % (SETVI [8]; dosage 5 g/ha) [%] | Post-emergence action against SETVI in % (SETVI [8]; dosage 20 g/ha) [%] | Pre-emergence action against MATIN in % (MATIN [9]; dosage 20 g/ha) [%] | Pre-emergence action against MATIN in % (MATIN [9]; dosage 80 g/ha) [%] | Post-emergence action at 20 g/ha against AMARE in % (AMARE [10]) [%] | Post-emergence action against PHBPU in % (PHBPU [11]) [%] | Pre-emergence action against VIOTR in % (VIOTR [12]; dosage 20 g/ha) [%] | Pre-emergence action against VIOTR in % (VIOTR [12]; dosage 80 g/ha) [%] | Pre-emergence action against DIGSA in % (DIGSA [13]; dosage 20 g/ha) [%] | Pre-emergence action against DIGSA in % (DIGSA [13]; dosage 80 g/ha) [%] | Pre-emergence action against POLCO in % (POLCO) [%] | also measured
CCc1c(C(=O)Nc2nnnn2CC)ccc(C(F)F)c1C(=O)NC [Example 2-277] | 80 | 90 | 80 | 100 | 100 | 90 | 90 | 90 | 90 | 90 | 90 | 90 | 100 | 90 | 90 | 100 | 100 | 90 | 100 | 90 | Post-emergence action against VERPE in % (VERPE [5]; 5 g/ha): 80%; Post-emergence action against ABUTH in % (ABUTH [7]; dosage 5 g/ha): 80%; Pre-emergence action against VERPE in % (VERPE [14]): 100%; Pre-emergence action against ABUTH (herbicidal activity) (ABUTH [15]): 100%; Pre-emergence action against ABUTH (herbicidal activity in percent) (ABUTH [15]): 90%; Post-emergence action against VIOTR in % (VIOTR [16]; 5 g/ha): 90%; Post-emergence action against VIOTR in % (VIOTR [16]; 20 g/ha): 90%; Post-emergence action against DIGSA in % (DIGSA [17]): 90%; Post-emergence action against DIGSA (DIGSA [17]): 90%; Post-emergence action against ECHCG in % (ECHCG [18]; dosage 20 g/ha): 100%
CCn1nnnc1NC(=O)c1ccc(C(F)F)c(C(=O)NC2CC2)c1C1CC1 [Example 2-306] | 100 | 100 | 100 | 90 | 100 | 90 | 80 | 90 | 80 | 80 | 80 | 90 | 100 | 90 | 80 | 100 | 100 | 100 | 100 | 80 | Pre-emergence action against VERPE in % (VERPE [14]): 100%; Pre-emergence action against ABUTH (herbicidal activity) (ABUTH [15]): 100%; Pre-emergence action against ABUTH (herbicidal activity in percent) (ABUTH [15]): 100%; Post-emergence action against VIOTR in % (VIOTR [16]; 5 g/ha): 90%; Post-emergence action against VIOTR in % (VIOTR [16]; 20 g/ha): 90%; Post-emergence action against DIGSA in % (DIGSA [17]): 80%; Post-emergence action against DIGSA (DIGSA [17]): 90%; Post-emergence action against ECHCG in % (ECHCG [18]; dosage 5 g/ha): 90%; Post-emergence action against ECHCG in % (ECHCG [18]; dosage 20 g/ha): 90%
